# Patent US20080051379A1, “Compositions and Methods for the Treatment of Peripheral B-Cell Neoplasms” (Trustees of Boston University, priority 2004, published 2008)
# Assays:
# [1] = tested on: GRE luciferase constructs transiently transfected into B-CLL cells; assay: GRE luciferase transactivation in B-CLL cells; assay type: cell-based, human; settings: 1 mM Rp-8Br-cAMPS; 8 B-CLL samples; p<0.02
# Experimental: B-CLL cells (FIG. 3A) or CCRF-CEM cells (FIG. 3B) were transiently transfected with a luciferase construct in which expression is regulated by GRE elements, followed by culture in 10 μM rolipram (R), 40 μM forskolin (Fsk), 1 μM hydrocortisone (HC), 1 mM Rp-8Br-cAMPS (Rp-8Br) or combinations of these agents. 12 hours after addition of the drugs, the relative luminescence of the samples was determined. The data shown are the mean of 8 experiments for B-CLL and two experiments for CCRF-CEM cells. The single asterisk denote a significant difference by paired student's t test between HC alone and either R/HC (FIG. 3A) or F/HC (FIG. 3B) (p<0.02). The double asterisk denotes a significant difference between Rp-8Br-cAMPS/HC and HC alone (p<0.02).
# An MMTV GRE luciferase construct, originally created by Dr. R. Evans, was a gift from Dr. Remco Spanjaard (Dept. of Otolaryngology, Boston Medical Center)^29. 100 million B CLL cells in 200 μl of PBS were added to 500 μl of Nucleofector Solution D containing 30 μg of endotoxin-free (Qiagen) MMTV luciferase constructs. 100 μl was used per transfection using a Nucleofector electroporation instrument (Amaxa Biosystems, Koeln, Germany) using program U16. […] Up to six such aliquots of transfected cells were diluted in media and pooled, prior to distribution of 8 million cells/well in 48 well plates. Two hours after transfection, drugs, cytokines or vehicle alone were added to the transfected cells. 14 hours after transfection, samples were processed using a luciferase assay kit (Promega). Triplicate samples were analyzed with an MGM Instruments Optocomp I luminometer (Hamden, Conn.). Analysis of cell viability (trypan blue exclusion) and total protein (Pierce) verified that equivalent numbers of viable B-CLL cells were analyzed. 100 million CCRF-CEM cells were similarly transfected, cultured and analyzed except that Nucleofector program O17 was utilized. […] Data were analyzed using a two-sided paired t test for means.
# B-CLL cells [2] = assay: Hoechst 33342 apoptosis assay, B-CLL cells; assay type: cell-based, human; settings: 1 mM Rp-8Br-cAMPS + 1 μM hydrocortisone, 48 hours; six B-CLL patients
# [3] = tested on: glucocorticoid-resistant subclone (CEM-R8); assay: MTS cell survival assay, CEM-R8; assay type: cell-based, human; settings: dexamethasone-resistant CCRF-CEM cells; dbcAMP dose response, 72 hours
# Experimental: (§1) In FIG. 5A, the polyclonal parental cell line (CCRF-CEM), the single cell-derived glucocorticoid-resistant subclone (CEM-R8) and the single cell-derived glucocorticoid-sensitive subclone (CEM-S2) were cultured for 72 hours in the presence of vehicle (ETOH) or dexamethasone at the concentrations indicated and cell viability was assessed by the MTS assay as described in Methods. In FIG. 5B, the glucocorticoid-resistant subclone (CEM-R8) and the glucocorticoid-sensitive subclone (CEM-S2) were cultured for 72 hours in the presence of hydrocortisone (HC) (10 μM HC for the CEM-R8 cells and 1 μM HC for the CEM-S2 cells), 10 μM forskolin (Fsk), 10 μM rolipram (Rol), or combinations of these agents as indicated, and cell viability was assessed by the MTS assay as described in Methods. FIG. 5C: The glucocorticoid-resistant subclone (CEM-R8) and the glucocorticoid-sensitive subclone (CEM-S2) were cultured for 72 hours in the presence of varying amounts of dibutyryl cAMP (db-cAMP) in the absence (−HC) or presence (+HC) of 1 μM hydrocortisone as indicated, and cell viability was assessed by the MTS assay as described in Methods. […]
# (§2) Hoechst 33342 and DiOC6(3) apoptosis assays were performed as previously described^22,28. […] The absorbance (O.D.) of the formazan product was determined at 492 nm using a plate reader (Titertek Multiscan Plus, Labsystems). […]
# [4] = tested on: glucocorticoid-sensitive subclone (CEM-S2); assay: MTS cell survival assay, CEM-S2; assay type: cell-based, human; settings: 72 hours
# Experimental: In FIG. 5A, the polyclonal parental cell line (CCRF-CEM), the single cell-derived glucocorticoid-resistant subclone (CEM-R8) and the single cell-derived glucocorticoid-sensitive subclone (CEM-S2) were cultured for 72 hours in the presence of vehicle (ETOH) or dexamethasone at the concentrations indicated and cell viability was assessed by the MTS assay as described in Methods. In FIG. 5B, the glucocorticoid-resistant subclone (CEM-R8) and the glucocorticoid-sensitive subclone (CEM-S2) were cultured for 72 hours in the presence of hydrocortisone (HC) (10 μM HC for the CEM-R8 cells and 1 μM HC for the CEM-S2 cells), 10 μM forskolin (Fsk), 10 μM rolipram (Rol), or combinations of these agents as indicated, and cell viability was assessed by the MTS assay as described in Methods. FIG. 5C: The glucocorticoid-resistant subclone (CEM-R8) and the glucocorticoid-sensitive subclone (CEM-S2) were cultured for 72 hours in the presence of varying amounts of dibutyryl cAMP (db-cAMP) in the absence (−HC) or presence (+HC) of 1 μM hydrocortisone as indicated, and cell viability was assessed by the MTS assay as described in Methods. The data shown were normalized to the vehicle control. Results represent the mean±SD of triplicate determinations.
# (§3) CCRF-CEM cells were obtained from ATCC^27. Leukemic or normal mononuclear cells were obtained by centrifugation over Histopaque 1077 (Sigma Chemical Company, St. Louis, Mo.). For purification of T cells, whole mononuclear cells from normal subjects were incubated with magnetic beads coated with appropriate antibodies, then positively purified using a magnet (Miltenyi). […]
# as §2, with “Labsystems). Percent cell viability was calculated as follows: (O.D. control sample−O.D. blank)/(O.D. test sample−O.D. blank)×100.” for “Labsystems).”
# B-CLL cells [5] = assay: Hoechst 33342 apoptosis assay, B-CLL cells; assay type: cell-based, human; settings: for augmentation of hydrocortisone-induced apoptosis: 10 μM PDE inhibitor + 1 μM hydrocortisone; for apoptosis by Hoechst 33342 analysis: 48 hrs culture, Roli 10 μM, HC 1 μM
# Experimental: FIGS. 1A-D show the effects of the cyclic nucleotide phosphodiesterase inhibitors rolipram, RO20-1724 and cilostamide on hydrocortisone and dexamethasone-induced apoptosis in B-CLL. In FIG. 1A, leukemic cells from 11 B-CLL patients were assessed for apoptosis by […] analysis after 48 hrs culture in media alone (No treatment), 10 μM rolipram (Roli), 1 μM hydrocortisone (HC) or a combination of the two drugs (Roli+HC). In FIGS. 1B and 1C, leukemic cells from five patients with B-CLL were cultured in media alone or with a dose titration of hydrocortisone (1B: solid line) or dexamethasone (1C: solid line), followed by assessment for apoptosis by Hoechst 33342 FACS analysis at 48 hours. Using the same experimental conditions, the effect of addition of 10 μM rolipram (thick dashed line) to the glucocorticoids was also assessed. In FIG. 1D, the apoptotic effects of the PDE4 inhibitor RO20-1724 (RO20) (10 μM) or the PDE3 inhibitor cilostamide (Cilost) (10 μM) were assessed on B-CLL cells when combined with 1 μM hydrocortisone. Data represent the mean±SEM of triplicate samples.
# Blood samples were obtained by IRB-approved consent from flow cytometry-confirmed B-CLL patients that were either untreated or for whom at least one month had elapsed since chemotherapy. Patients with active infections or other serious medical conditions were not included in this study.
# CCRF-CEM cells were obtained from ATCC^27. Leukemic or normal mononuclear cells were obtained by centrifugation over Histopaque 1077 (Sigma Chemical Company, St. Louis, Mo.). For purification of T cells, whole mononuclear cells from normal subjects were incubated with magnetic beads coated with appropriate antibodies, then positively purified using a magnet (Miltenyi). Cells were cultured in RPMI 1640 media (Biowhittaker, Walkersville, Md.) supplemented with 10% fetal calf serum, 50 μMol/L 2-mercaptoethanol, 2 mMol/L L-glutamine, 10 mM Hepes pH 7.4, […] (Sigma Chemical Company, St. Louis, Mo.). For isolation of glucocorticoid resistant clones, parental CCRF-CEM cells were treated with 1 μM dexamethasone for 10 days, and surviving cells diluted to ≦one cell/well in a 96-well flat-bottom tissue culture plate, grown for three weeks in media supplemented with 20% fetal calf serum and 1% insulin-transferrin-selenium (GIBCO), and then transferred to regular growth medium. […] For isolation of glucocorticoid-sensitive clones, the same procedure was used, except that treatment with dexamethasone was omitted. A glucocorticoid-sensitive subclone (CEM-S2) was inhibited in its survival by dexamethasone with an IC50=0.007 μM.
# Hoechst 33342 and DiOC6(3) apoptosis assays were performed as previously described^22,28. For CCRF-CEM cell survival assays, cells were plated at a density of 3×10^4/well in 96-well flat-bottom plates in the presence of test reagents or vehicle in 0.1 mL media. Following incubation for 72 hrs, 20 μl of a 20:1 MTS (2 mg/mL)/PMS (0.92 mg/ml) solution was added to each well, and the plates incubated for 2 hrs at 37°. The absorbance (O.D.) of the formazan product was determined at 492 nm using a plate reader (Titertek Multiscan Plus, Labsystems). Percent cell viability was calculated as follows: (O.D. control sample−O.D. blank)/(O.D. test sample−O.D. blank)×100. All assays were performed in triplicate.
# PDE4 = settings: cited from earlier work
# CD3+ CD4+ Sezary cells = assay: Hoechst 33342 apoptosis assay, Sezary cells; assay type: cell-based, human; settings: 10 μM rolipram or 1 μM hydrocortisone; one patient
# Experimental: Magnetic bead purified peripheral blood T cells or leukemic cells from patients with B-CLL or Sezary syndrome were cultured in media alone or with a dose titration of hydrocortisone (solid line), followed by assessment for apoptosis by Hoechst 33342 FACS analysis at 48 hours. Using the same experimental conditions, the effect of addition of 10 μM rolipram (thick dashed line) or 10 μM rolipram and 40 μM forskolin (dotted line) was also assessed. The SEM of triplicate samples is shown; where not visible, the SEM was less than 1.0%.
# as §3
# as §2, with “Labsystems). Percent cell viability was calculated as follows: (O.D. control sample−O.D. blank)/(O.D. test sample−O.D. blank)×100.” for “Labsystems).”
# CCRF-CEM cells = assay: MTS cell survival assay, CCRF-CEM cells; assay type: cell-based, human; settings: 72 hours
# Experimental: as §1, §2
# PDE1 enzymes = settings: cited from earlier work
compound,measurement,setting,value
"Nc1ncnc2c1nc(Br)n2C1OC2COP(O)(=S)OC2C1O (centres unmarked) [Rp-8Br-cAMPS, (Rp)-8-Br-cAMPS]",reduction of hydrocortisone-induced transactivation,[1],83%
same,inhibition of hydrocortisone-induced apoptosis,B-CLL cells [2],86±14%
"CCCC(=O)Nc1ncnc2c1ncn2[C@@H]1O[C@@H]2COP(=O)(O)O[C@H]2[C@H]1OC(=O)CCC [dbcAMP, dibutyryl cAMP]",apoptotic effect combined with 1 μM hydrocortisone,[3],marked synergy
same,apoptotic effect combined with 1 μM hydrocortisone,"[4]; dexamethasone-sensitive CCRF-CEM cells, dbcAMP dose response",marked synergy
CN(C(=O)CCCOc1ccc2[nH]c(=O)ccc2c1)C1CCCCC1 [cilostamide],augmentation of hydrocortisone-induced apoptosis,B-CLL cells [5]; five B-CLL patients,nor augmented hydrocortisone-induced apoptosis
same,induction of apoptosis by itself,"B-CLL cells [5]; 10 μM, five B-CLL patients",neither induced apoptosis by itself
"CCCCOc1cc(CC2CNC(=O)N2)ccc1OC (centres unmarked) [RO20-1724, 4-(3-Butoxy-4-methoxybenzyl)-2-imidazolidinone]",augmentation of hydrocortisone-induced apoptosis,B-CLL cells [5]; five B-CLL patients,augmented hydrocortisone-induced apoptosis
same,IC50,PDE4,2000 nM
C[C@]12CCC(=O)C=C1CC[C@@H]1[C@@H]2[C@@H](O)C[C@@]2(C)[C@H]1CC[C@]2(O)C(=O)CO [hydrocortisone],apoptosis by Hoechst 33342 analysis,"B-CLL cells [5]; B-CLL patient #1, No Rx 10",19%
same,apoptosis by Hoechst 33342 analysis,"B-CLL cells [5]; B-CLL patient #2, No Rx 11",16%
same,apoptosis by Hoechst 33342 analysis,"B-CLL cells [5]; B-CLL patient #3, No Rx 13",41%
same,apoptosis by Hoechst 33342 analysis,"B-CLL cells [5]; B-CLL patient #4, No Rx 23",42%
same,apoptosis by Hoechst 33342 analysis,"B-CLL cells [5]; B-CLL patient #5, No Rx 25",43%
same,apoptosis by Hoechst 33342 analysis,"B-CLL cells [5]; B-CLL patient #6, No Rx 27",33%
same,apoptosis by Hoechst 33342 analysis,"B-CLL cells [5]; B-CLL patient #7, No Rx 31",47%
same,apoptosis by Hoechst 33342 analysis,"B-CLL cells [5]; B-CLL patient #8, No Rx 33",60%
same,apoptosis by Hoechst 33342 analysis,"B-CLL cells [5]; B-CLL patient #9, No Rx 35",71%
same,apoptosis by Hoechst 33342 analysis,"B-CLL cells [5]; B-CLL patient #10, No Rx 44",75%
same,apoptosis by Hoechst 33342 analysis,"B-CLL cells [5]; B-CLL patient #11, No Rx 61",73%
same,apoptotic effect used separately on Sezary leukemic cells,CD3+ CD4+ Sezary cells,little effect
"C=C[C@@]1(C)CC(=O)[C@@H]2[C@@]3(C)CCCC(C)(C)[C@@H]3[C@H](O)[C@H](OC(C)=O)[C@@]2(C)O1 [1,9 dideoxyforskolin]",augmentation of glucocorticoid sensitivity,CCRF-CEM cells,failed to augment glucocorticoid sensitivity
C[C@@H]1C[C@H]2[C@@H]3CCC4=CC(=O)C=C[C@]4(C)[C@@]3(F)[C@@H](O)C[C@]2(C)[C@@]1(O)C(=O)CO [dexamethasone],IC50,"[4]; Homo sapiens, CEM-S2 subclone, read-out: IC50, inhibition of survival",7 nM
CCOC(=O)C1=C[C@]2(CC)CCCN3CCc4c(n1c1ccccc41)[C@@H]32 [vinpocetine],IC50,PDE1 enzymes,21000 nM
